Results from article PMC4010493, “Molecular Characterization and Expression Analysis of ATP-Gated P2X7 Receptor Involved in Japanese Flounder (Paralichthys olivaceus) Innate Immune Response” (PLoS ONE, 2014).

Key:
Assay type in all cases: cell-based
poP2RX7 [1] = biological target: T1, poP2RX7 (Paralichthys olivaceus, UniProt A0A059T2C6); assay: two-electrode voltage clamp, Xenopus oocytes
T1 construct: Xenopus laevis oocytes; homotrimer

rP2RX7 [2] = biological target: T2, rP2RX7 (Rattus norvegicus, UniProt Q64663); assay: two-electrode voltage clamp, Xenopus oocytes
T2 construct: gene P2rx7; rat P2RX7 cDNA in Xenopus laevis oocytes; homotrimer
T2 sequence (Q64663 1-595): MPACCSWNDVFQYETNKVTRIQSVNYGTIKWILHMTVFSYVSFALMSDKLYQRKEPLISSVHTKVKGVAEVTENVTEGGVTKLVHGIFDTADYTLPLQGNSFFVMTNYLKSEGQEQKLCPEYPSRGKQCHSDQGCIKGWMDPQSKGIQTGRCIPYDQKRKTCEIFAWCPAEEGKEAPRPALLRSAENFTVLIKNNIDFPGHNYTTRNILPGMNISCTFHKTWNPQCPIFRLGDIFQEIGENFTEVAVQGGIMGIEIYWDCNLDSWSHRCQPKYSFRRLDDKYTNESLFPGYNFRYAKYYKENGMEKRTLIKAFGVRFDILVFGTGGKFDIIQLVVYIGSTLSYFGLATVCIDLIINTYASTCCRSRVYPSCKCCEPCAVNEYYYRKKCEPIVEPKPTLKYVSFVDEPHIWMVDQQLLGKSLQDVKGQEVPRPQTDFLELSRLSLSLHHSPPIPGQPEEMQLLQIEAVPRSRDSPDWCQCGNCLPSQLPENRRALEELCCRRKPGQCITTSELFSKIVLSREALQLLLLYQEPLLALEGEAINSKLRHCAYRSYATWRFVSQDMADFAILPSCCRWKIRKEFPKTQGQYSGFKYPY

rP2RX7 [3] = biological target: T2, rP2RX7; assay: two-electrode voltage clamp, inhibition of ATP-evoked current; settings: antagonist; 2 min pre-application, then co-applied with ATP; -70 mV, pH 7.5
poP2RX7 [4] = biological target: T1, poP2RX7; assay: as above; settings: antagonist; 2 min pre-application, then co-applied with ATP; -70 mV, pH 7.5
poP2RX7 [5] = biological target: T1, poP2RX7; assay: as above; settings: antagonist; 2 min pre-application, then co-applied with ATP; -70 mV, pH 7.5; remark: listed apart in the source

T1 sequence (A0A059T2C6 entry or part of it): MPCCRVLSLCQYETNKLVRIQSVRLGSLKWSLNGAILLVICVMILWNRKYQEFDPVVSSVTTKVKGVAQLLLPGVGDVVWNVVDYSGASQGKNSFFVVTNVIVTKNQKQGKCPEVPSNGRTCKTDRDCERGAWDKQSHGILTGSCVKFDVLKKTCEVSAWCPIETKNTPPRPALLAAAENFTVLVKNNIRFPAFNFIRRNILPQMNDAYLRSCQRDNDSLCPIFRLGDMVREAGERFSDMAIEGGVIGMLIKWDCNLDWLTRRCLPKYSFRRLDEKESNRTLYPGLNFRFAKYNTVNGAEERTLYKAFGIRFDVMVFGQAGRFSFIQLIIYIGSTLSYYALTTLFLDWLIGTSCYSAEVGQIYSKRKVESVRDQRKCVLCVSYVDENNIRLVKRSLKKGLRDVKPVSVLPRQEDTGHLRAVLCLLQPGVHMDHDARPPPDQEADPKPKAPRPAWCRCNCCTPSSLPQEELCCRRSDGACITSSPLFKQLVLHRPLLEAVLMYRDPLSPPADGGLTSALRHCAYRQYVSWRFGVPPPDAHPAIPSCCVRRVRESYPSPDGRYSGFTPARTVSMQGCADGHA

| SMILES | EC50 (poP2RX7 [1]) | EC50 (rP2RX7 [2]) | inhibition (rP2RX7 [3]) | inhibition at 1 μM (poP2RX7 [4]) | inhibition at 20 μM (poP2RX7 [5]) |
| --- | --- | --- | --- | --- | --- |
| Nc1ncnc2c1ncn2[C@@H]1O[C@H](COP(=O)(O)OP(=O)(O)OP(=O)(O)O)[C@@H](O)[C@H]1O [ATP] | 790 ± 81 µM | 376 ± 120 µM | – | – | – |
| Nc1ncnc2c1ncn2[C@@H]1O[C@H](COP(=O)(O)OP(=O)(O)OP(=O)(O)O)[C@@H](OC(=O)c2ccc(C(=O)c3ccccc3)cc2)[C@H]1O [BzATP] | 743 ± 299 µM | 13.3 ± 1.6 µM | – | – | – |
| CCOc1ccc(Nc2ccc(C(=C3C=CC(=[N+](CC)Cc4cccc(S(=O)(=O)[O-])c4)C=C3C)c3ccc(N(CC)Cc4cccc(S(=O)(=O)O)c4)cc3C)cc2)cc1 [BBG] | – | – | inhibition induced by BBG or AZ10606120 (AZ) at poP2RX7 (open bars) and rP2RX7 | ATP-evoked currents at poP2RX7 could be inhibited by both of the antagonists | – |
| O=C(CC12CC3CC(CC(C3)C1)C2)Nc1cccc2nc(NCCNCCO)ccc12 [AZ10606120] | – | – | AZ10606120 was less potent in poP2RX7 than in rP2RX7 | – | AZ10606120 was less potent in poP2RX7 than in rP2RX7 |
